Test results published in patent US8211606B2, “Coloring compound, yellow toner, sheet for heat-sensitive transfer recording, and ink” (Canon Kabushiki Kaisha, priority 2007, dated 2012).

Assays:
[1] = Light resistance evaluation of coloring compound on paper, Sun Tester irradiation (color difference ΔE); type: physicochemical; conditions: 765 w/m^2, 50° C., irradiation time 20 hours, on CLC color copy paper
Description: A coloring compound was dissolved in tetrahydrofuran/cyclohexanone (=1/1 (v/v)) to prepare a 0.04 mol/L solution, which was then filtered with a filter (Φ0.2 μm). The prepared coloring compound solution was applied on CLC color copy paper (manufactured by Canon Inc.) by a bar coat method (Bar No. 3) and air-dried overnight. The test paper was then subjected to an irradiation experiment using Sun Tester (XF-180CPS, manufactured by Shimadzu Corporation) under the conditions of an illuminance of 765 w/m^2, a temperature of 50° C. and an irradiation time of 20 hours. The test paper before and after irradiation was analyzed by means of SpectroLino (from Gretag Machbeth). Optical density and chromaticity (L*, a*, b*) were determined on the basis of the L*a*b* color system. Color difference (ΔE) was calculated according to the following equation on the basis of measurements of the color characteristics.
The evaluation was performed as below.
A: The ΔE value is less than 10.
B: The ΔE value is 10 or more and less than 20.
C: The ΔE value is 20 or more.
The ΔE value of less than 20 was determined to indicate good light resistance.

[2] = Solubility check: solubility of coloring compound in chloroform at room temperature; type: physicochemical
Description: A solubility test was performed to measure the solubility of a coloring compound in chloroform at room temperature. The solubility was evaluated as described below.
A: 5% or more solubility in chloroform
B: 1% or more and less than 5% solubility in chloroform
C: less than 1% solubility in chloroform
A solubility of 1% or more in chloroform was determined to indicate high compatibility with resin.

With `CCn1c(O)c(/N=N/c2ccccc2[N+](=O)[O-])c(C)c(C(N)=O)c1=O` [(2), reference compound] the “Light Resistance” value [1] was “C (The ΔE value is 20 or more.)” and the Solubility [2] was “C (less than 1% solubility in chloroform)”.
In the case of `CCCCC(CC)Cn1c(O)c(N=Nc2cc(F)c(F)cc2[N+](=O)[O-])c(C)c(C(N)=O)c1=O` (stereo not shown) [(7)], the “Light Resistance” value [1] is reported as “B (The ΔE value is 10 or more and less than 20.)” and the Solubility [2] is reported as “A (5% or more solubility in chloroform)”.
For `CCCCC(CC)Cn1c(O)c(N=Nc2c([N+](=O)[O-])cc(F)c(F)c2F)c(C)c(C(N)=O)c1=O` (stereo not shown) [(8)], the “Light Resistance” value [1] was “B (The ΔE value is 10 or more and less than 20.)” and the Solubility [2] was “A (5% or more solubility in chloroform)”.
In the case of `CCCCC(CC)Cn1c(O)c(N=Nc2c([N+](=O)[O-])cc(C(F)(F)F)cc2[N+](=O)[O-])c(C)c(C(N)=O)c1=O` (stereo not shown) [(9)], the “Light Resistance” value [1] is reported as “B (The ΔE value is 10 or more and less than 20.)” and the Solubility [2] is reported as “B (1% or more and less than 5% solubility in chloroform)”.
In the case of `CCCCC(CC)Cn1c(O)c(N=Nc2c(Br)cc(C(F)(F)F)cc2[N+](=O)[O-])c(C)c(C(N)=O)c1=O` (stereo not shown) [(10)], the “Light Resistance” value [1] is reported as “A (The ΔE value is less than 10.)” and the Solubility [2] is reported as “B (1% or more and less than 5% solubility in chloroform)”.
In the case of `CCCCC(CC)Cn1c(O)c(N=Nc2ccc(C#N)cc2[N+](=O)[O-])c(C)c(C(N)=O)c1=O` (stereo not shown) [(11)], the “Light Resistance” value [1] is reported as “A (The ΔE value is less than 10.)” and the Solubility [2] is reported as “A (5% or more solubility in chloroform)”.
For `CCCCC(CC)Cn1c(O)c(N=Nc2ccc(C(F)(F)F)cc2[N+](=O)[O-])c(C)c(C(N)=O)c1=O` (stereo not shown) [(12)], the “Light Resistance” value [1] was “A (The ΔE value is less than 10.)” and the Solubility [2] was “A (5% or more solubility in chloroform)”.
For `CCn1c(O)c(N=Nc2ccc(C(F)(F)F)cc2[N+](=O)[O-])c(-c2ccccc2)c(C(=O)NC(C)(C)C)c1=O` [(13)], the “Light Resistance” value [1] was “B (The ΔE value is 10 or more and less than 20.)” and the Solubility [2] was “A (5% or more solubility in chloroform)”.
For `CCCCC(C)(CC)NC(=O)c1c(C)c(N=Nc2ccc(C(F)(F)F)cc2[N+](=O)[O-])c(O)[nH]c1=O` (stereo not shown) [(14)], the “Light Resistance” value [1] was “A (The ΔE value is less than 10.)” and the Solubility [2] was “B (1% or more and less than 5% solubility in chloroform)”.
For `Cc1c(N=Nc2ccccc2[N+](=O)[O-])c(O)n(-c2ccccc2)c(=O)c1C(N)=O` [(15)], the “Light Resistance” value [1] was “A (The ΔE value is less than 10.)” and the Solubility [2] was “B (1% or more and less than 5% solubility in chloroform)”.
In the case of `Cc1c(N=Nc2ccccc2[N+](=O)[O-])c(O)n(Cc2ccccc2)c(=O)c1C(N)=O` [(16)], the “Light Resistance” value [1] is reported as “A (The ΔE value is less than 10.)” and the Solubility [2] is reported as “B (1% or more and less than 5% solubility in chloroform)”.
With `CCCCC(CC)Cn1c(O)c(N=Nc2ccccc2[N+](=O)[O-])c(C)c(C(=O)NC2CCCC2)c1=O` (stereo not shown) [(17)] the “Light Resistance” value [1] was “B (The ΔE value is 10 or more and less than 20.)” and the Solubility [2] was “A (5% or more solubility in chloroform)”.
With `CCCCC(CC)Cn1c(O)c(N=Nc2ccc(C(F)(F)F)cc2[N+](=O)[O-])c(C)c(C(=O)NCc2ccccc2)c1=O` (stereo not shown) [(18)] the “Light Resistance” value [1] was “B (The ΔE value is 10 or more and less than 20.)” and the Solubility [2] was “A (5% or more solubility in chloroform)”.
In the case of `CCCCC(CC)Cn1c(O)c(/N=N/c2ccccc2[N+](=O)[O-])c(C)c(C#N)c1=O` (stereo not shown) [Comparative Compound (1), reference compound], the “Light Resistance” value [1] is reported as “C (The ΔE value is 20 or more.)” and the Solubility [2] is reported as “B (1% or more and less than 5% solubility in chloroform)”.
For `CCCCC(CC)Cn1c(O)c(/N=N/c2ccccc2[N+](=O)[O-])c(C)c(C(N)=O)c1=O` (stereo not shown) [Compound (4)], the “Light Resistance” value [1] was “A (The ΔE value is less than 10.)” and the Solubility [2] was “B (1% or more and less than 5% solubility in chloroform)”.
In the case of `CCCCC(CC)Cn1c(O)c(/N=N/c2ccc(C(F)(F)F)cc2[N+](=O)[O-])c(C)c(C(=O)NC(C)(C)C)c1=O` (stereo not shown) [Compound (5)], the “Light Resistance” value [1] is reported as “A (The ΔE value is less than 10.)” and the Solubility [2] is reported as “A (5% or more solubility in chloroform)”.
For `CCCCC(CC)Cn1c(O)c(/N=N/c2ccc(F)cc2[N+](=O)[O-])c(C)c(C(N)=O)c1=O` (stereo not shown) [Compound (6)], the “Light Resistance” value [1] was “A (The ΔE value is less than 10.)” and the Solubility [2] was “B (1% or more and less than 5% solubility in chloroform)”.
